Patent US20220264883A1, “IMIDAZOTHIAZOLE COMPOUNDS AND METHODS FOR TREATING PLANT NEMATODE INFECTIONS” (The Governing Council of the University of Toronto, priority 2019, published 2022)
Read-outs that look alike come from different tables or passages of the source.

Assays:
M. chitwoodi = experiment: Root-knot nematode M. chitwoodi mobility (Table 3); assay type: in vivo, Meloidogyne chitwoodi; conditions: 45 μM, 2 days of chronic exposure
Procedure: M. incognita (Kofoid & White) Chitwood Race 1 (originally isolated in Maryland) was used for all experiments, and was maintained on pepper (Capsicum annuum L.) cv. PA-136 in a greenhouse as previously described^64. Infective J2 juveniles were collected as described in ref.65. The microwell dose-response experiments were carried out similarly to previously described protocols^64, 66. In brief, 100 J2s, in 10 μL of deionized water, were added to the wells of 96-well polystyrene plates, after which 190 μL of deionized water containing dissolved chemical, or DMSO alone, was added to each well. The chemicals were tested at 45 μM, and the final concentration of DMSO in each well was 0.5% (v/v). The wells were covered with a plastic adhesive strip, and the lids of the plates were sealed with parafilm. The plates were incubated at 25° C. The mobile fraction of worms was quantified by counting the number of mobile and immobile worms after 2 days of incubation, and then dividing the number of mobile worms by the total number of worms in the well. Three technical replicates were performed for each treatment, and an average value for the mobile fraction of worms was calculated across the three replicates. The percent effectiveness at inhibiting nematode movement was calculated by dividing the average value for the chemical treatment by the average value for the DMSO control, then subtracting this value from 1, and then multiplying by 100.
M. chitwoodi race 1 (the strain commonly found in the pacific northwest of the United States) was used for all experiments, and was maintained on tomato plants (Solanum lycopersicum ‘Rutgers’) as previously described^73. The M. chitwoodi in vitro assays were performed identically to the M. incognita in vitro assays (see above).
(§1) The ability of exemplary compounds of the application to kill C. elegans at 100 μM (except for compound If which was tested at 50 μM) and to affect the mobility of M. chitwoodi at 45 μM was tested as described above for M. incognita infective juveniles. Percent mobility was measured after 2 days of chronic exposure to test compounds (Table 3).

C. elegans [1] = experiment: C. elegans dose-response experiments (wild type; embryo to adult and dauer stages); assay type: in vivo; conditions: for LC50: Caenorhabditis elegans
Procedure: (§2) Forty microliters of an HB101 bacterial suspension in liquid NGM (see above) was added to each well of a 96-well flat-bottom culture plate, after which approximately 25 synchronized L1 worms, in 10 μl of M9 buffer (see ref. 59 for the recipe), were added to each well. The synchronized L1 worms were obtained from an embryo preparation performed the previous day (see ref. 59 for the protocol). For the L1 assays, 0.5 μl of chemical solution (or DMSO alone) was immediately added to the wells using a multichannel pipette, the final DMSO concentration is 1% (v/v). The worms were incubated for 3 days at 20° C. and the number of viable animals was counted. […] Although the counts were performed after 3 days of incubation in the chemical, it was noted that the L1s were dead within 24 hours of the addition of the chemicals. For the L2/L3 assays, the worms were incubated in the absence of chemical for 1 day at 20° C. until they reached the L2/L3 stage, at which point chemical was added as described above. The worms were then allowed to incubate for 2 days at 20° C. and the number of viable animals was counted as described for the L1 assay. For the L4 assays, the worms were incubated for 2 days at 20° C. before the addition of chemicals. The L4-stage worms were then incubated in chemical for an additional day before quantifying the number of viable animals. The adult assays were performed the same way as the L4 assays, however HT115 E. coli carrying the empty dsRNA expressing vector L4440 was used in place of HB101 and the worms were cultured at 25° C. as opposed to 20° C. for the entirety of the experiment. The HT115 suspension was made by concentrating a bacterial culture, with an OD600 of ˜ 0.8, five-fold with liquid NGM containing 1 mM IPTG and 100 μg/ml carbenicillin. The HT115 cells were induced with 1 mM IPTG for one hour before concentrating with NGM.
For the dose-response experiments with embryos, eggs obtained from an embryo preparation were immediately aliquoted into 96-well plate wells. Approximately 25 embryos in 50 μl of M9 buffer were added to each well, and 0.5 μl volumes of the chemicals were added via multichannel, in the same way as for the L1 dose-response assays described above. The plates were incubated at 20° C. for 1 day, at which point the number of hatched eggs was counted.
For the dauer dose-response assays, the CB1370 strain carrying the temperature sensitive daf-2(e1370) allele was used. When grown at the non-permissive temperature of 25° C. these mutants will enter dauer constitutively. The assay was performed similarly to the […] described above, however the L1 worms were allowed to grow for 2 days at 25° C. until they became dauer larvae. At this point chemical was added and the dauers were incubated for 2 days at 25° C. before quantitation of viability. After 2 days, all of the dauer larvae, including the DMSO controls, were relatively motionless and appeared as rigid rods. To activate the worms, 1 μl of 1 N sodium hydroxide was added to each well and the plates were agitated vigorously before counting. This was done one well at a time.
At least three biological replicates were performed for each dose-response assay. For each biological replicate, two technical replicates were performed and the numbers of viable animals for each technical replicate were combined (i.e. ˜50 worms assayed per concentration). The number of viable worms at each concentration was divided by the corresponding DMSO control value to give the “relative viability” for each concentration. The “relative viability” values were then averaged across the biological replicates. LC50 values were calculated using Graphpad Prism. The concentration values were log-transformed and a four-parameter logistic curve was fitted to the dose-response data by non-linear regression, from which the LC50 values were extracted.

P. pacificus = experiment: Pristionchus pacificus dose-response experiments; assay type: in vivo; conditions: larvae, animals reaching L3 stage or older counted
Procedure: Dose-response assays were carried out exactly as those described above for the C. elegans L1 dose-response experiments. However, the compounds of the application-induced phenotypes in P. pacificus, even at the highest concentrations, were a combination of lethality and larval arrest. Therefore, for the Pristionchus dose-response assays, the number of animals that reached the L3 stage or older was quantified, as opposed to the number of viable worms. The arrested animals appeared very sick, and would likely die before reaching reproductive adulthood. Therefore, this arrested phenotype was considered to be practically analogous to lethality. The “relative viability” values were calculated the same way as for the C. elegans dose-response experiments, and were averaged across at least three biological replicates. LC50 values were calculated in the same manner as for the C. elegans dose-response assays.

C. elegans [2] = experiment: C. elegans viability at a single concentration (Table 3); assay type: in vivo; conditions: Caenorhabditis elegans; 100 μM
Procedure: as §2, §1

[3] = 72 h, L1 worms, 3 days at 20° C., read-out: C. elegans LC50
[4] = wild-type, resistance none, read-out: LC50 in strain N2

Row | SMILES | RKN mobility (M. chitwoodi) [%] | LC50 (C. elegans [1]; [3]) [µM] | LC50 (C. elegans [1]; [4]) [µM] | killing of each developmental stage of C. elegans from embryo to adult (C. elegans [1]; FIG. 1B) | killing of the non-reproductive dauer stage of C. elegans (C. elegans [1]; daf-2(e1370) dauers, FIG. 1B) | LC50 (P. pacificus) [µM] | viability at 100 µM (C. elegans [2]) [%]
1 | Clc1ccc(-c2cn3ccsc3n2)cc1 [Ia] | 0 | 6.9 | 6.9 | micromolar potency | can also kill the non-reproductive dauer stage | 6.1 | 0
2 | Fc1ccc(-c2cn3ccsc3n2)cc1 [Ib] | 43.2 | 29.7 | 29.7 |  |  | 14.7 | 0
3 | Cc1csc2nc(-c3ccccc3)cn12 [Compound Ie] | 50.8 | > 100 |  |  |  | 45.5 | 100
